In patent US9241991B2, “Agents, compositions, and methods for treating pruritus and related skin conditions” (The Brigham and Women's Hospital, Inc., priority 2010, dated 2016):

Assays:
TLR7 [1] = molecular target: T1, TLR7 (Mus musculus, UniProt P58681); test: Patch clamp recording of inward currents and action potentials in small DRG neurons, TLR7 ligands; format: cell-based, mice
T1 construct: We found functional TLR7 receptors in small-size DRG neurons; from tissue; host or cells: small DRG neurons of mice; nape and cheek skin of live mice (C57BL/6J background, CD1)
T1 sequence (P58681 27-1050): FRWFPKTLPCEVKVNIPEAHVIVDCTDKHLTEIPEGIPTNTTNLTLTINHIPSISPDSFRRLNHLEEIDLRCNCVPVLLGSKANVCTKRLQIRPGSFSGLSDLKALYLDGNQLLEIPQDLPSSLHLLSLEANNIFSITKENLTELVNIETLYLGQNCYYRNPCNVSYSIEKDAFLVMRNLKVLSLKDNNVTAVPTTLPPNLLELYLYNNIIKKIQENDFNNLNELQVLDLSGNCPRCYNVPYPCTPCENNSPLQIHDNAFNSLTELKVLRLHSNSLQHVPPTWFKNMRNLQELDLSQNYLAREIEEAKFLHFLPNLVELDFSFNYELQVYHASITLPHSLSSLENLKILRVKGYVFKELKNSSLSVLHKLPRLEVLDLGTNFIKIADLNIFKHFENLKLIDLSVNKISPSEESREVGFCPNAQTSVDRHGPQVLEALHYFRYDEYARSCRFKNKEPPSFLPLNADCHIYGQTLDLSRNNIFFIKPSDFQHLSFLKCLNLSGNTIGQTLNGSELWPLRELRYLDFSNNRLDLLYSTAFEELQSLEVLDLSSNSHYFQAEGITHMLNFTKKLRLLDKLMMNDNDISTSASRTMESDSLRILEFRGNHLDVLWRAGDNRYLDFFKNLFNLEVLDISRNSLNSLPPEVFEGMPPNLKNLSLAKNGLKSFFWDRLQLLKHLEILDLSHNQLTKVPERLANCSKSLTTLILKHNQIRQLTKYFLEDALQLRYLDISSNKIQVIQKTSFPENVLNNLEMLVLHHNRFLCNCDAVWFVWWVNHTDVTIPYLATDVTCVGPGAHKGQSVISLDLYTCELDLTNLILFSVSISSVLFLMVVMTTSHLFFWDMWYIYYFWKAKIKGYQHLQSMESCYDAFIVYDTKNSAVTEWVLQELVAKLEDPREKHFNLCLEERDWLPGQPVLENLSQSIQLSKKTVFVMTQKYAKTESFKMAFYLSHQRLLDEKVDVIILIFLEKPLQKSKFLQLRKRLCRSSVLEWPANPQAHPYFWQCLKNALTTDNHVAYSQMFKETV

TLR7 [2] = test: Scratches after intradermal injection in the nape of the neck, WT and Tlr7-/- mice; format: in vivo
From the text: We next evaluated whether TLR7 plays a role in itch sensation. We counted the number of scratches (bouts) by a hindpaw of mouse following intradermal injection of pruritogenic agents in the nape of the neck.

TLR7 [3] = molecular target: T1, TLR7; test: Cheek model of itch versus pain, TLR7 ligands; format: in vivo, mice; settings: 20 μg intradermal into the cheek
Protocol: To distinguish itch and pain responses simultaneously, we used the cheek model by injection of chemical into cheek of mice (8). After brief anesthesia with isoflurane, we shaved mice on cheeks (approx. 5×8 mm area) two days before experiments. On the day of experiment, we injected 10 μl of reagent (50 μg compound 48/80 or 100 μg chloroquine) into the cheek and counted the number of wipes and the number of scratches for 30 min. We only counted those unilateral wipes with the forelimb that were not part of grooming behavior. One scratch was defined as a lifting of the hind paw toward the injection site on the cheek and then returning the paw to the floor or to the mouth.
To further investigate a unique role of TLR7 in itch versus pain, we used a recently developed “cheek model” of itch (Shimada, S. G. & LaMotte, R. H. Pain 139, 681-687 (2008)).

mice = test: Imiquimod-induced scratching in Trpv1-/- and mast cell-deficient SASH mice; format: in vivo
TLR7 [4] = molecular target: T2, TLR7 (Homo sapiens, UniProt Q9NYK1); settings: cited from earlier work
T2 construct: host or cells: human skin, clinical use (Madan et al. 2010)
T2 sequence (Q9NYK1 27-1049): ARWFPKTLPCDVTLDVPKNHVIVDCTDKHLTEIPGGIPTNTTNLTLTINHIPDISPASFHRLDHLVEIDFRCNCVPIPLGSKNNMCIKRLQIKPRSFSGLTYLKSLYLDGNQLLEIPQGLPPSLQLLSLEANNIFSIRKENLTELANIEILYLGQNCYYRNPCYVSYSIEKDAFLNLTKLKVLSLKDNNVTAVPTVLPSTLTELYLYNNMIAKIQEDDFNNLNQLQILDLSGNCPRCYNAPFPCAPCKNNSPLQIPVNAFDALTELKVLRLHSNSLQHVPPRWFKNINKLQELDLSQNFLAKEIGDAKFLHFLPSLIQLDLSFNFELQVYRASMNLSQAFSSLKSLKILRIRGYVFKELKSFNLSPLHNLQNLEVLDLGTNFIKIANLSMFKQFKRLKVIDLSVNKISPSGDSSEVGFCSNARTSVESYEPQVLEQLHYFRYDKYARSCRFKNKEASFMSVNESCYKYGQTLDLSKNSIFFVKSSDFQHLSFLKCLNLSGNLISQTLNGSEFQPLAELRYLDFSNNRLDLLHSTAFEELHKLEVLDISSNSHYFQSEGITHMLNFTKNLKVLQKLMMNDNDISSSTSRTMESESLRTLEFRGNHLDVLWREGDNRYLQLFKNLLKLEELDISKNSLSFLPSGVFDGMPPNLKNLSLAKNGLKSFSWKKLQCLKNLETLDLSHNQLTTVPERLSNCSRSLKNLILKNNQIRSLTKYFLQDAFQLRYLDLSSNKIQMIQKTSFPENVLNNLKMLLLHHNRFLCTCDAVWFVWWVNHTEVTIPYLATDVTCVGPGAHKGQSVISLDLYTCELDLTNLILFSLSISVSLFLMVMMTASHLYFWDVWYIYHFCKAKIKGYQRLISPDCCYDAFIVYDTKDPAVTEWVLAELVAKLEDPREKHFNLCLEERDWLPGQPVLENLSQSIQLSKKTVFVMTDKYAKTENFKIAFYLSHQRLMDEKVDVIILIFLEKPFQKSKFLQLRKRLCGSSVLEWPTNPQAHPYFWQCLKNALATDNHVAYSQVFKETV

TLR7 [5] = molecular target: T1, TLR7; settings: mice; cited from earlier work
TLR7 [6] = test: IMQ-induced scratches after intrathecal TLR7 siRNA; format: in vivo; settings: siRNA 4 μg intrathecal with PEI 48 and 24 h before IMQ (20 mg, 20 μg elsewhere in the source), CD1 mice, vs NT siRNA; P<0.05
Protocol: (§1) 4 μg siRNA targeting TLR7 ([…] (SEQ ID NO:8)) (synthesized by Dharmacon, On-target Plus) or a non-targeting control siRNA ([…] (SEQ ID NO:9)) was administered intrathecallly to wild type (CD1) mice at 24 and 48 hours before the mice received an injection of IMQ ([…]). siRNA was dissolved in RNase-free water at 1 μg/μl as stock solution and mixed with polyethyleneimine (PEI, Fermentas Inc. Hanover, USA, 0.18 μl of PEI solution for 1 μg of siRNA), 10 minutes before injection, to increase cell membrane penetration and reduce the degradation. PEI was dissolved in 5% glucose. After behavioral testing, DRG tissues were collected for quantitative PCR analysis.

TLR7 mRNA = TLR7 mRNA levels in cervical DRGs by quantitative PCR after siRNA; format: in vivo, mice; settings: siRNA 4 μg intrathecal, P<0.05
Protocol: as §1

Row | Compound | neurons from WT mice that respond (TLR7 [1]; 500 μM, small DRG neurons) | action potentials in DRG neurons (TLR7 [1]; WT but not Tlr7-/- mice, 500 μM) | response of neurons from Tlr7-/- mice (TLR7 [1]; all 10 neurons) | inward currents in DRG neurons (TLR7 [1]; capsaicin-responsive DRG neurons of WT but not Tlr7-/- mice, imiquimod 20-500 μM) | dose response curve of scratching (TLR7 [2]; intradermal injection, nape) | scratches in Tlr7-/- mice versus WT (TLR7 [2]; intradermal, 100 μg) | itch-like scratching in cheek model (TLR7 [3]) | pain-indicative wiping in cheek model (TLR7 [3]) | reduction in imiquimod-induced scratching in mast cell-deficient SASH mice (mice; SASH mice vs WT control) [%] | imiquimod-induced scratching in Trpv1-/- mice (mice; Trpv1-/- vs WT control) | pruritus on topical application (TLR7 [4]) | skin inflammation (TLR7 [5]) | IMQ induced scratches (TLR7 [6]) | TLR7 mRNA levels in cervical DRGs (TLR7 mRNA)
1 | CC(C)Cn1cnc2c(N)nc3ccccc3c21 [imiquimod] | Eight out of 17 | induced action potentials | fail to respond | dose-dependent inward currents | inverted-U-shaped dose response curve | reduced | elicited itch-like scratching | not pain-indicative wiping behavior | 28 | remained unaltered | frequently elicits pruritus | induces psoriasis-like skin inflammation | – | –
2 | TLR7 siRNA: siRNA targeting TLR7 (CCUUACACUAUUUCCGAUA, SEQ ID NO:8), synthesized by Dharmacon, On-target Plus (chemistry not given here) | – | – | – | – | – | – | – | – | – | – | – | – | significantly reduced | reduced levels
